Read-outs that look alike come from different tables or passages of the source.
How the values were obtained:
[1] = molecular target: T1, human recombinant Met kinase (Homo sapiens, UniProt P08581); test: Colorimetric determination of c-Met kinase activity (HTScan Met Kinase Assay Kit); type: biochemical; settings: for inhibition: cells marked *: tested @ 300 nM, read-out: c-Met Enzyme % inhibition; for inhibition at 0.1 µM: 100 nM (cells without *), read-out: c-Met Enzyme % inhibition @ 100 nM
T1 construct: purchased Cell Signalling Technology, Beverly, Mass
Source text: 1. MET Kinase Assay Protocol:
Colorimetric Determination of c-Met Kinase Activity
The receptor tyrosine kinase c-Met is a heterodimeric transmembrane glycoprotein involved in several cellular processes that aid in tumor progression. Phosphorylation of the tyrosine residues in the c-Met kinase domain is critical for its activity and the resulting down-stream effects. The colorimetric assay allows detection of the phosphorylated form of a biotinylated peptide upon activation of human recombinant Met kinase.
MET Kinase Assay Protocol:
c-Met Kinase activity shall be determined using an HTScan® Met Kinase Assay Kit (Cell Signalling Technology, Beverly, Mass.) with modifications. All incubations are carried out at room temperature. Briefly, 12.5 μl of a 4× reaction cocktail (DTT/Kinase buffer containing appropriate quantity of human Met kinase) is added to each well of a 96-well plate containing 12.5 μl pre-diluted compound of interest and incubated for 5 minutes. After the initial incubation, 25 μl/well of 2×ATP/biotinylated peptide is added and incubated for an additional 30 minutes. The reaction is terminated by the addition of 50 μl/well stop buffer (50 mM EDTA, pH 8.0). The reaction mixture (25 μl/well) is then transferred to a streptavidin coated plate (Perkin Elmer, Cat#4009-0010) containing 75 μl dH2O and incubated for 60 minutes. The plate is washed with 200 μl/well wash buffer (1×PBS, 0.05% Tween-20). After washing, 100 μl/well phospho-tyrosine mAb (1:1000 in wash buffer containing 1% BSA) is added and incubated for 60 minutes. After another round of washes, 100 μl/well europium labelled anti-mouse IgG (1:500 in wash buffer containing 1% BSA) is added and incubated for an additional 30 minutes. Following additional washes, 100 μl/well Delfia^(R) enhancement solution (Perkin Elmer, Cat#1244-105) is added and incubated for 45 minutes. Florescence is measured on a microplate reader (BMG Labtech., Germany) at 340 nm (excitation) and 615 nm (emission) for calculating % inhibition. Data generated can be analyzed further using Graphpad Prism (Graphpad software, San Diego Calif.) for determination of IC50.
Results: The results are as given below in Table 4A, 4B and 4C as % Inhibition or IC50 of c-Met

MKN-45 = test: Inhibition of MKN-45 proliferation (MTT); type: cell-based, human; settings: Homo sapiens; for GI50: read-out: MKN45 GI50; for inhibition at 0.1 µM: 100 nM, read-out: MKN45 % inhibition @ 100 nM
Method: 3. Inhibition of MKN-45 Proliferation:
Cell proliferation assays were carried out using the high Met expressing human gastric adenocarcinoma cell line, MKN-45, according to the following schedule: • Day 1: Cells were plated in 96-well plates in complete growth medium. • Day 2: Compounds at desired concentrations were added. • Day 5: Cell viability was determined using the 3-[4,5-dimethylthiazol-2-yl]-2,5-diphenyltetrazolium bromide (MTT) dye reduction test. Results: The results are as given as % Inhibition of MKN-45 proliferation at 100 nM and GI50 values in Table 4A to 4C above. 4. Inhibition of c-Met Kinase Phosphorylation in MKN-45 Cells: […]

[2] = MKN-45, Table 4A, MKN-45 proliferation
[3] = MKN-45, Table 4C, MKN-45 proliferation

T1 sequence (P08581 25-1390): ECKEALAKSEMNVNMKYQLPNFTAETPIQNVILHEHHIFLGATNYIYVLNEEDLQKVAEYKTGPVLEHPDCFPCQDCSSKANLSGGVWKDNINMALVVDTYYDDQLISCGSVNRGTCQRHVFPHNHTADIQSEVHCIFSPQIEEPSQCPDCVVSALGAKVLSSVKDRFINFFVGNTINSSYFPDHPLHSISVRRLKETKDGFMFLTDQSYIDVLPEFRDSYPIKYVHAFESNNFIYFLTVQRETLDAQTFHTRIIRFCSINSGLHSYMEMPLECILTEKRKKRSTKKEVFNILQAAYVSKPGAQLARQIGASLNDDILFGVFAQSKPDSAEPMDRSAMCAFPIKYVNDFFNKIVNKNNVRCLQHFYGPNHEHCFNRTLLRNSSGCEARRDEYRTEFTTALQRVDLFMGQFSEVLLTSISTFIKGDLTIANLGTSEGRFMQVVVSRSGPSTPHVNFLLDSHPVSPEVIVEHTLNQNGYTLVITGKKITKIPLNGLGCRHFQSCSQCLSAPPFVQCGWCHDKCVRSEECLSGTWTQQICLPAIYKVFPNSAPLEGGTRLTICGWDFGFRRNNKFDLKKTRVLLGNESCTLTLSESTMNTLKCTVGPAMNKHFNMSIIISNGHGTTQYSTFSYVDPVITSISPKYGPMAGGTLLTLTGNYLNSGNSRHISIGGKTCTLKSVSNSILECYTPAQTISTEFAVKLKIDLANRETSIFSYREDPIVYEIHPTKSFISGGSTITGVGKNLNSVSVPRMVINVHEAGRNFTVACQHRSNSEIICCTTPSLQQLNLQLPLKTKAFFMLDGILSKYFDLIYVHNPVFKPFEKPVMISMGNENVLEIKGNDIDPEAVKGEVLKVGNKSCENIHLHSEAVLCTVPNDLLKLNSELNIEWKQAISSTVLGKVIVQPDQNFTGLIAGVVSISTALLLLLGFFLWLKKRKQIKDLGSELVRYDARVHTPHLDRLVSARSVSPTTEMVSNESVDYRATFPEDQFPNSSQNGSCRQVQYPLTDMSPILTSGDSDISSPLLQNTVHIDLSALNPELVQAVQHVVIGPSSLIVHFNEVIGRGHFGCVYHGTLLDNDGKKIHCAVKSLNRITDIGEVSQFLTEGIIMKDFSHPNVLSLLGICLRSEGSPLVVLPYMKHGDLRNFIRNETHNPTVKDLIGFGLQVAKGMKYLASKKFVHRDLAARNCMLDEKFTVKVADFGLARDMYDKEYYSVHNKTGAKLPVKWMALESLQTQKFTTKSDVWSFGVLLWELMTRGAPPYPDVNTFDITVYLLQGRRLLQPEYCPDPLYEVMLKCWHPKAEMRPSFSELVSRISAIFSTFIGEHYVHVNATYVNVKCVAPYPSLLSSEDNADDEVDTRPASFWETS

SMILES | GI50 (MKN-45; [2]) | inhibition at 0.1 µM ([1]; Table 4A) | inhibition at 0.1 µM (MKN-45; [2]) | other results
NC(=O)CCNC(=O)c1ccc(-c2ccc3nnn(Cc4ccc5ncccc5c4)c3n2)cc1 [Example 3, N-(3-amino-3-oxopropyl)-4-(3-(quinolin-6-ylmethyl)-3H-[1,2,3]triazolo[4,5-b]pyridin-5-yl)benzamide] | 100 to 250 nM |  |  | inhibition ([1]; Table 4A): 50 to 75%
CCNC(=O)c1c(F)cc(-c2ccc3ncn(Cc4ccc5ncccc5c4)c3n2)cc1F [Example 1016, N-ethyl-2,6-difluoro-4-(3-(quinolin-6-ylmethyl)-3H-imidazo[4,5-b]pyridin-5-yl)benzamide] |  |  |  | inhibition ([1]; Table 4C): 25 to 50%; inhibition at 0.1 µM (MKN-45; [3]): < 25%
CC(c1ccc2ncccc2c1)n1cnc2ccc(-c3ccc(C(N)=O)c(Cl)c3)nc21 (stereo not shown) [Example 1021, 2-chloro-4-(3-(1-(quinolin-6-yl)ethyl)-3H-imidazo[4,5-b]pyridin-5-yl)benzamide] |  |  |  | inhibition ([1]; Table 4C): < 25%; inhibition at 0.1 µM (MKN-45; [3]): 25 to 50%
Cc1cc(-c2ccc3nnn(Cc4cc5cccnc5cc4F)c3n2)ccc1C(=O)NOCCO [Example 26, 4-(3-((7-fluoroquinolin-6-yl)methyl)-3H-[1,2,3]triazolo[4,5-b]pyridin-5-yl)-N-(2-hydroxyethoxy)-2-methylbenzamide] | 25 to 50 nM | 75 to 100% | 75 to 100% | 
C/C(=N\OCCO)c1ccc2nnn(Cc3ccc4ncccc4c3)c2n1 [Example 62, 1-(3-(quinolin-6-ylmethyl)-3H-[1,2,3]triazolo[4,5-b]pyridin-5-yl)ethanone O-2-hydroxyethyl oxime] |  |  | < 25% | inhibition ([1]; Table 4A): < 25%
Cc1cc(-c2ccc3ncn(Cc4ccc5ncccc5c4)c3n2)ccc1C(=O)NOCCO [Example 111, N-(2-Hydroxy-ethoxy)-2-methyl-4-(3-quinolin-6-ylmethyl-3H-imidazo[4,5-b]pyridin-5-yl)-benzamide] |  |  |  | inhibition at 0.1 µM ([1]; Table 4B): 75 to 100%; inhibition at 0.1 µM (MKN-45; MKN-45, Table 4B, MKN-45 proliferation): < 25%
CNC(=O)c1ccc(-c2ccc3ncn(Cc4ccc5ncccc5c4)c3n2)cc1Cl [Example 1017, 2-chloro-N-methyl-4-(3-(quinolin-6-ylmethyl)-3H-imidazo[4,5-b]pyridin-5-yl)benzamide] |  |  |  | inhibition ([1]; Table 4C): 25 to 50%; inhibition at 0.1 µM (MKN-45; [3]): < 25%
NC(=O)CNC(=O)c1ccc(-c2ccc3nnn(Cc4ccc5cccnc5c4)c3n2)cc1 [Example 1, N-(2-amino-2-oxoethyl)-4-(3-(quinolin-7-ylmethyl)-3H-[1,2,3]triazolo[4,5-b]pyridin-5-yl) benzamide] |  | 75 to 100% |  | inhibition at 0.1 µM (MKN-45; MKN-45, Table 4A, cell printed as a number, not a class letter): 0%
NC(=O)c1ccc(-c2ccc3ncn(Cc4c(F)cc5ncccc5c4F)c3n2)cc1C(F)(F)F [Example 1028, 4-[3-(5,7-Difluoro-quinolin-6-ylmethyl)-3H-imidazo[4,5-b]pyridin-5-yl]-2-trifluoromethyl-benzamide] |  |  |  | inhibition at 0.1 µM ([1]; Table 4C): 75 to 100%; inhibition at 0.1 µM (MKN-45; [3]): 75 to 100%
COC(=O)N/N=C(\C)c1ccc2nnn(Cc3ccc4ncccc4c3)c2n1 [Example 58, Methyl 2-(1-(3-(quinolin-6-ylmethyl)-3H-[1,2,3]triazolo[4,5-b]pyridin-5-yl)ethylidene)hydrazinecarboxylate] |  |  | 25 to 50% | inhibition ([1]; Table 4A): < 25%
C/C(=N\Nc1ccccn1)c1ccc2nnn(Cc3ccc4ncccc4c3)c2n1 [Example 51, 6-((5-(1-(2-(pyridin-2-yl)hydrazono)ethyl)-3H-[1,2,3]triazolo[4,5-b]pyridin-3-yl)methyl)quinoline] |  |  | < 25% | inhibition ([1]; Table 4A): < 25%
C/C(=N\NC(=O)OC(C)(C)C)c1ccc2nnn(Cc3ccc4ncccc4c3)c2n1 [Example 53, tert-butyl 2-(1-(3-(quinolin-6-ylmethyl)-3H-[1,2,3]triazolo[4,5-b]pyridin-5-yl)ethylidene)hydrazinecarboxylate] |  |  | < 25% | inhibition ([1]; Table 4A): < 25%
CNC(=O)CCNC(=O)c1ccc(-c2ccc3nnn(Cc4ccc5ncccc5c4)c3n2)cc1 [Example 4, N-(3-(methylamino)-3-oxopropyl)-4-(3-(quinolin-6-ylmethyl)-3H-[1,2,3]triazolo[4,5-b]pyridin-5-yl)benzamide] | 250 to 1000 nM |  |  | inhibition ([1]; Table 4A): 75 to 100%
Cc1cc(-c2ccc3nnn(Cc4ccc5[nH]c(=O)ccc5c4)c3n2)ccc1C(=O)NOCC(C)(C)O [Example 37, N-(2-hydroxy-2-methylpropoxy)-2-methyl-4-(3-((2-oxo-1,2-dihydroquinolin-6-yl)methyl)-3H-[1,2,3]triazolo[4,5-b]pyridin-5-yl)benzamide] |  | 50 to 75% |  | 
O=C(NOCCO)c1ccc(-c2ccc3ncn(Cc4ccc5ncccc5c4)c3n2)cc1Cl [Example 113, 2-Chloro-N-(2-hydroxy-ethoxy)-4-(3-quinolin-6-ylmethyl-3H-imidazo[4,5-b]pyridin-5-yl)-benzamide] |  |  |  | inhibition at 0.1 µM ([1]; Table 4B): 75 to 100%
NC(=O)c1c(F)cc(-c2ccc3ncn(Cc4ccc5ncccc5c4)c3n2)cc1F [Example 1010, 2,6-difluoro-4-(3-(quinolin-6-ylmethyl)-3H-imidazo[4,5-b]pyridin-5-yl) benzamide] |  |  |  | inhibition ([1]; Table 4C): < 25%
NC(=O)c1ccc(-c2ccc3nnn(Cc4ccc5[nH]c(=O)ccc5c4)c3n2)cc1Cl [Example 1004, 2-chloro-4-(3-((2-oxo-1,2-dihydroquinolin-6-yl)methyl)-3H-[1,2,3]triazolo[4,5-b]pyridin-5-yl)benzamide] |  |  |  | inhibition ([1]; Table 4C): < 25%

The next lines start with results.

GI50 (MKN-45; [2]) | inhibition at 0.1 µM ([1]; Table 4A) | SMILES | inhibition at 0.1 µM (MKN-45; [2]) | other results
25 to 50 nM | 75 to 100% | CC(O)CONC(=O)c1ccc(-c2ccc3nnn(Cc4ccc5ncccc5c4)c3n2)cc1Cl (stereo not shown) [Example 28, 2-chloro-N-(2-hydroxypropoxy)-4-(3-(quinolin-6-ylmethyl)-3H-[1,2,3]triazolo[4,5-b]pyridin-5-yl)benzamide] | 75 to 100% | 
50 to 100 nM | 75 to 100% | O=C(NOCCO)c1ccc(-c2ccc3nnn(Cc4ccc5ncccc5c4)c3n2)cc1C(F)(F)F [Example 23, N-(2-hydroxyethoxy)-4-(3-(quinolin-6-ylmethyl)-3H-[1,2,3]triazolo[4,5-b]pyridin-5-yl)-2-(trifluoromethyl)benzamide] | 75 to 100% | 
100 to 250 nM | 75 to 100% | CCOC(=O)CONC(=O)c1ccc(-c2ccc3nnn(Cc4ccc5ncccc5c4)c3n2)cc1Cl [Example 29, ethyl 2-(2-chloro-4-(3-(quinolin-6-ylmethyl)-3H-[1,2,3]triazolo[4,5-b]pyridin-5-yl)benzamidooxy)acetate] | < 25% | 
25 to 50 nM | 75 to 100% | CC(C)(O)CONC(=O)c1c(F)cc(-c2ccc3nnn(Cc4ccc5ncccc5c4)c3n2)cc1F [Example 34, 2,6-difluoro-N-(2-hydroxy-2-methylpropoxy)-4-(3-(quinolin-6-ylmethyl)-3H-[1,2,3]triazolo[4,5-b]pyridin-5-yl)benzamide] | 75 to 100% | 
 | 75 to 100% | Cc1cc(-c2ccc3nnn(Cc4ccc5ncccc5c4)c3n2)ccc1C(=O)NOC(C)(C)CO [Example 39, N-(1-hydroxy-2-methylpropan-2-yloxy)-2-methyl-4-(3-(quinolin-6-ylmethyl)-3H-[1,2,3]triazolo[4,5-b]pyridin-5-yl)benzamide] | 75 to 100% | 
 | 75 to 100% | Cc1cc(-c2ccc3nnn(Cc4ccc5ncccc5c4)c3n2)ccc1C(=O)NOC[C@H](C)O [Example 36, (S)—N-(2-hydroxypropoxy)-2-methyl-4-(3-(quinolin-6-ylmethyl)-3H-[1,2,3]triazolo[4,5-b]pyridin-5-yl)benzamide] |  | 
